Laboratory results taken from US20230141887A1, “CRYSTAL FORM OF DIAZASPIROPYRAN COMPOUND” (MEDSHINE DISCOVERY INC., priority 2020, published 2023).
pIC50, pKd: −log10 of the molar value.

How the values were obtained:
[1] = target: T1, FLT3 (Homo sapiens, UniProt P36888); assay: Assay of FLT3 inhibitory activity in vitro (Promega FLT3 Kinase Enzyme System, ADP-Glo); type: biochemical; conditions: 50 μmol/L ATP, 30° C., 120 minutes
T1 construct: purchased Promega
Method: The assay was carried out in duplicate. […] After the reaction was completed, 5 μL of ADP-Glo reagent was added to each well. The system was further reacted at 30° C. for 40 minutes. After the reaction was completed, 10 μL of kinase detection reagent was added to each well and reacted at 30° C. for 30 minutes. The chemiluminescence was then read by the PerkinElmer Envision multi-label analyzer with an integration time of 0.5 seconds.
The original data was converted into an inhibition rate, and the IC50 value can be obtained by four-parameter curve fitting.

[2] = target: T2, FLT3(ITD, F691L) (Homo sapiens, UniProt P36888, F691L, form not given); type: binding
T2 construct: fused on or other part: DNA tag for the qPCR read-out (the KINOMEscan format)
T2 sequence (P36888 1-993 F691L): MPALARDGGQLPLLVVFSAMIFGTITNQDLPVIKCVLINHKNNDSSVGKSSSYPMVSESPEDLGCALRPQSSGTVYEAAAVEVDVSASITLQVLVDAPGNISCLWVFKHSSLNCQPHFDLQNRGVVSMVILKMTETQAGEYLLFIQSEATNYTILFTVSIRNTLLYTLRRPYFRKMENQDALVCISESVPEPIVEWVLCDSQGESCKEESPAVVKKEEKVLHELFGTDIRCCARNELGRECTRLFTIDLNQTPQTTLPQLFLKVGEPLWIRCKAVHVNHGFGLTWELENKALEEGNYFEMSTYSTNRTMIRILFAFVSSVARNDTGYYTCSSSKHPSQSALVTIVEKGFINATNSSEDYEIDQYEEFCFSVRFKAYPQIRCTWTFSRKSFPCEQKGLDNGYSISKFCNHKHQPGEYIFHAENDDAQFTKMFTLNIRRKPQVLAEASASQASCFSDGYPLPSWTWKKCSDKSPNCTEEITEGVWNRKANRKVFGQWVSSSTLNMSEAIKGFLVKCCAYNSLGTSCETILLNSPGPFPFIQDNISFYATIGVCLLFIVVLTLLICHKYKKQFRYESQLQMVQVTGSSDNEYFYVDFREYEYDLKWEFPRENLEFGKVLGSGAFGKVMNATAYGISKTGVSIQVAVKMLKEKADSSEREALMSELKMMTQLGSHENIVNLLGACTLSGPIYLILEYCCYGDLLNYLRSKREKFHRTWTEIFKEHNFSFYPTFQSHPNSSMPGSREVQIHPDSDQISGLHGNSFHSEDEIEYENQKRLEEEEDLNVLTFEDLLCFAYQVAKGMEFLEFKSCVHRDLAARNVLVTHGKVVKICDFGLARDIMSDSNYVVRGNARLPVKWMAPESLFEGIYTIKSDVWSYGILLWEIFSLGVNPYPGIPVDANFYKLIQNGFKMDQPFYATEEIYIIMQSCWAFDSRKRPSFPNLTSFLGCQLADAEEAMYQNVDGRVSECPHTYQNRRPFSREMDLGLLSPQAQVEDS
Method: The assay was carried out using KINOMEscan™ technology. The assay compounds were stored in 100% DMSO. The assay was carried out by means of 3-fold dilution and 11-point fitting. All compounds used for Kd determination were dispersed by ultrasound, then directly diluted and tested. All reactions were carried out in a 384-well polypropylene plate. Each portion has a final volume of 0.02 ml. The plate was incubated with shaking at room temperature for 1 hour, and then processed. The kinase concentration in the eluent was finally determined by qPCR method. Kd was obtained by fitting.

[3] = In vivo pharmacokinetic assay in mice; parameters: species or system CD-1 male mice
Method: CD-1 male mice aged 7 to 10 weeks were selected. The doses for intravenous and oral administration were 1 mg/kg and 2.5 mg/kg, respectively. The mice were fasted for at least 12 hours before the administration, and resumed feeding 4 hours after the administration. The mice had free access to water throughout the assay period.
On the day of the assay, the animals in the intravenous group were administrated the corresponding compound through a single injection in the tail vein at an administration volume of 5 mL/kg; the oral group were administrated the corresponding compound through a single intragastric gavage at an administration volume of 10 mL/kg. The animals were weighed before administration, and the administration volume was calculated based on the body weight. The time for collecting samples was: 0.083 (the injection group), 0.25, 0.5, 1, 2, 4, 8, 24 h. About 30 μL of whole blood was collected from the saphenous vein at each time point to prepare plasma for concentration determination by high-performance liquid chromatography-tandem mass spectrometry (LC-MS/MS). All animals were euthanized by CO2 anesthesia after collecting the PK samples at the last time point. The plasma concentrations were processed by non-compartmental model of WinNonlin™ Version 6.3 (Pharsight, Mountain View, Calif.) pharmacokinetic software, and the pharmacokinetic parameters were calculated by the linear logarithm trapezoidal method.

[4] = Oral administration (2.5 mg/kg)

T1 sequence (P36888 27-993): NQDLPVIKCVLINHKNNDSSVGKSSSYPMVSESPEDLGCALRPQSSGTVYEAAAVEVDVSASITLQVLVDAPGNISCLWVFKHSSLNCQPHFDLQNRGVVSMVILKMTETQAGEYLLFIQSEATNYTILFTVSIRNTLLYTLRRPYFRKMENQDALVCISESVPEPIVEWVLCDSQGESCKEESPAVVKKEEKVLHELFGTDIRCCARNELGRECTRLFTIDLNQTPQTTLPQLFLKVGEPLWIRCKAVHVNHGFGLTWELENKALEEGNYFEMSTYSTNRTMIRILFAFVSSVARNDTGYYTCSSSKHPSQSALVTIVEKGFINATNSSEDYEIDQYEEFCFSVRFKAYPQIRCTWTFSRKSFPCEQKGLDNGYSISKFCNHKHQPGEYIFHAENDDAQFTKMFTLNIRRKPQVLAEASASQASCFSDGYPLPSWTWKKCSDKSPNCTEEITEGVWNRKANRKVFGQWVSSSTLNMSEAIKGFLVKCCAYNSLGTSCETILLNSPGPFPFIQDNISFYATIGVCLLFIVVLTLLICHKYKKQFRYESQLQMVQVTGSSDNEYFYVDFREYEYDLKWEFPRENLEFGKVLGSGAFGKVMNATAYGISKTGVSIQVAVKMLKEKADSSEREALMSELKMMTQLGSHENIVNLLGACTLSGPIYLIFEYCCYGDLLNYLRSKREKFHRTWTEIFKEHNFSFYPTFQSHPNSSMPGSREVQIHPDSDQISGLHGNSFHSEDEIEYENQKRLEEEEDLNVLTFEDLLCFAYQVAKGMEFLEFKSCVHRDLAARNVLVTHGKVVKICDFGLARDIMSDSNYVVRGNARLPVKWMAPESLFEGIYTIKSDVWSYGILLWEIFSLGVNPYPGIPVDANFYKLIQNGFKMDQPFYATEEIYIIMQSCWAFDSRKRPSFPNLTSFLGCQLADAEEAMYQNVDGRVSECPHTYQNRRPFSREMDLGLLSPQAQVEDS

CCc1nc(C(N)=O)c(Nc2ccc(N3CCC4(CCN(C)CC4)CC3)c(C)c2)nc1NC1CCOCC1.O=C(O)C(F)(F)F
pIC50 [1]: 9.38
pKd ([2]; FLT3(ITD, F691L)): 9.68
activity higher than that of the known compound B ([2]; FLT3 (ITD, F691L), ratio of Kd versus compound B): 3.6 times
AUC0-last ([3]; Injection (1 mg/kg)): 604 nm·h
Cl ([3]; Injection (1 mg/kg)): 48.5 mL/min/kg
T1/2 ([3]; Injection (1 mg/kg)): 2.40 h
Vdss ([3]; Injection (1 mg/kg)): 8.63 L/kg
Cmax [3, 4]: 60.5 nM
F% [3, 4]: 37.3%
T1/2 [3, 4]: 4.41 h
Tmax [3, 4]: 4.00 h
